# Patent US4075332A (priority 1976, dated 1978)
# Read-outs that look alike come from different tables or passages of the source.
# Experiments:
# Cabbage looper [1] = experiment: Field control of cabbage looper on cabbage (Example 28); assay type: in vivo; conditions: Table XVI; 1.5 lbs/acre; nil 5.9; higher ratings indicate more damage
# From the text: (§1) King Cole cabbage and Vates Collards were transplanted on Feb. 1. Cabbage treatments were made on 50 ft. rows and replicated 4 times. Collard treatments were made on 25 ft. rows and replicated 4 times. Collard and cabbage rows were placed side-by-side and were flanked by guard rows. Except for insecticide treatment, the plots were managed in accordance with recommended farming practice for the area. Chemicals were applied on April 3, 10, 17, 24, May 1, 8, 15, 22 and 29, and readings were made on June 1.
# Fall armyworm = experiment: Field control of fall armyworm on sweet corn (Example 28); assay type: in vivo
# Procedure: (§2) Corn plots were planted on March 22. Each treatment was made on a 50 ft. row flanked by guard rows. Treatments were replicated 4 times and the average rating is reported. Except for insecticide treatment, the plots were managed in accordance with recommended farming practice for the area.
# Fall armyworm plots on sweet corn were treated on May 13, 20 and 27. Readings were made on May 29.
# Spider mites [2] = conditions: two-spotted spider mite, in vivo, 48 h
# Bean aphids [3] = experiment: Aphid, Systemic; assay type: in vivo, bean aphid; conditions: Aphis fabae, 48 h, read-out: Mortality Produced, % - Bean Aphids Systemic
# In short: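 Nasturtium plants infested with bean aphids received the compound as a soil drench, formulated as an acetone/water emulsion with Triton X-100. Aphid control was rated 2 days after treatment.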
# Bean aphids [4] = experiment: whole plant or invertebrate; conditions: Aphis fabae, 48 h
# House fly [5] = conditions: in vivo, 48 h
# Cabbage looper [6] = experiment: Field control of cabbage looper on collards (Example 28); assay type: in vivo; conditions: Table XVI; 1.5 lbs/acre; nil 5.3; higher ratings indicate more damage
# From the text: as §1
# Corn earworm = experiment: Field control of corn earworm on corn (Example 28); assay type: in vivo
# From the text: as §2
# Corn earworm applications were made during silking on May 29, June 1, 2, 3, 4, 5, 8, 9, 10, 11 and 12. Readings were made on June 15.
# in vivo = conditions: rat, po
# Root-knot nematode = conditions: in vivo
# Spider mites [7] = experiment: whole plant or invertebrate; conditions: Tetranychus urticae
# Corn rootworm larvae = experiment: whole plant or invertebrate; conditions: soil, 120 h
# House fly [8] = experiment: whole plant or invertebrate; conditions: Musca domestica, 48 h
# Mexican bean beetle [9] = conditions: in vivo
# Mexican bean beetle [10] = experiment: whole plant or invertebrate; conditions: Epilachna varivestis
# Spider mites [11] = experiment: Mite, Systemic; assay type: in vivo, two-spotted mite; conditions: Tetranychus urticae, read-out: Mortality Produced, % - Spider Mites Systemic
# In short: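 Compound was dissolved in acetone and dispersed in water with Triton X-100 as an emulsion. 20 ml was applied as a soil drench to bean plants infested with two-spotted mites.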
# Southern army worm = conditions: in vivo
# [12] = read-out: Mortality Produced, % -
# [13] = read-out: Mortality Produced, % - Bean Aphids Contact
# [14] = 48 h, read-out: Mortality Produced, % - Spider Mites Contact
# [15] = read-out: Mortality Produced, % - House Flies
# [16] = read-out: Mortality Produced, % - Mex.Bean Beetle
smiles,measurement,setting,value
"CCCSP(=O)(OCC)SCC(C)SC (centres unmarked) [Example 32, O-Ethyl S-1-Propyl S'-2-Methylthiopropyl dithiophosphate]",Cabbage Looper Harvest Rating - Cabbage,Cabbage looper [1],3.8
same,"Fall Armyworm Injury Free Stalks of Sweet Corn, %","Fall armyworm; Table XVI, 0.75 lbs/acre, nil 67",91%
same,control of fall armyworm (in words),"Fall armyworm; sweet corn, 0.75 lbs. per acre",well controlled
same,"Mortality Produced, % - Spider Mites Contact",Spider mites [2],100%
same,mortality at 50 ppm,Bean aphids [3],0%
same,mortality at 250 ppm,Bean aphids [3],100%
same,mortality at 50 ppm,"Bean aphids [4]; read-out: Bean Aphids Mortality,%",100%
same,mortality at 50 ppm,"Bean aphids [4]; read-out: Mortality Produced at 50 ppm, % - Bean Aphids",100%
same,mortality at 50 ppm,Bean aphids [4]; [12],100%
same,mortality at 250 ppm,Bean aphids [4]; [12],100%
same,mortality at 50 ppm,Bean aphids [4]; [13],100%
same,mortality at 250 ppm,Bean aphids [4]; [13],100%
same,"Mortality Produced, % - House Flies",House fly [5],100%
same,Cabbage Looper Harvest Rating - Collards,Cabbage looper [6],2.0
same,control of corn earworms (in words),Corn earworm; 0.5 lbs per acre,excellent control
same,"Corn Earworm, % Clean Ears","Corn earworm; Table XVI, 0.5 lbs/acre, nil 36",94%
same,LD50 at 336 h,in vivo,109 mg/kg
same,"Nematode Control,%",Root-knot nematode,100%
same,Nematodes Control % at 25 lb/acre,Root-knot nematode,100%
same,mortality at 50 ppm,Spider mites [7]; [14],100%
same,mortality at 250 ppm,Spider mites [7]; [14],100%
same,mortality at 50 ppm,"Spider mites [7]; read-out: Mortality Produced at 50 ppm, % - Spider Mites",100%
same,mortality at 10 ppm,"Spider mites [7]; read-out: Spider Mites Mortality,%",100%
same,mortality at 2.5 ppm,"Corn rootworm larvae; read-out: Corn Rootworm Mortality, % at 2.5 ppm",100%
same,mortality at 2.5 ppm,"Corn rootworm larvae; read-out: Corn Rootworm Mortality,%",100%
same,mortality at 50 ppm,"House fly [8]; read-out: Mortality Produced at 50 ppm, % - Houseflies",100%
same,mortality at 50 ppm,House fly [8]; [15],100%
same,mortality at 250 ppm,House fly [8]; [15],100%
same,"Mortality Produced, % - Mex.Bean Beetle",Mexican bean beetle [9],100%
same,mortality at 50 ppm,"Mexican bean beetle [10]; read-out: Mexican Bean Beetles Mortality,%",100%
same,mortality at 50 ppm,"Mexican bean beetle [10]; read-out: Mortality Produced at 50 ppm, % - Mexican Bean Beetles",100%
same,mortality at 50 ppm,Mexican bean beetle [10]; [16],100%
same,mortality at 250 ppm,Mexican bean beetle [10]; [16],100%
same,mortality at 50 ppm,Spider mites [11],100%
same,mortality at 250 ppm,Spider mites [11],100%
same,"S.Armyworm Mortality,%",Southern army worm,100%
same,"Mortality Produced at 50 ppm, % - Southern Army Worm",Southern army worm; southern armyworm,100%
same,"Mortality Produced, % - S.Army Worm",Southern army worm; southern armyworm,100%
